Results as given in the supplement of paper PMC4862054.

What was measured:
Conditions in all cases: incubation time: 72 h
[1] = tested on: CAL-148; assay: normalised viability (% of control), CellTiter-Blue; higher = more viable cells (about 100 = DMSO control)
In short: (§1)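 Plates were quality-checked by Z'-factor and normalised to vehicle (100) and a positive kill control (0). The underlying assay incubated breast cancer cell lines for 72 h on 384-well plates with compound, then added 2.5 µl CellTiter-Blue for 2 h at 37 °C and read at 560/590 nm. The value is normalised viability at a single listed concentration of the series.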

[2] = tested on: CAL-51; assay: as above
In short: as §1

[3] = tested on: CAL-85-1; assay: as above
In short: as §1

[4] = tested on: DU-4475; assay: as above
In short: as §1

[5] = tested on: HDQ-P1; assay: as above
In short: as §1

[6] = tested on: MDA-MB-453; assay: as above
In short: as §1

[7] = tested on: BT-474; assay: normalised response (% of control), CellTiter-Glo; higher = more viable cells (100 = DMSO, 0 = benzethonium chloride kill control)
In short: (§2)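 CellTox Green fluorescence (485/520 nm) and, after 10 min at room temperature, CellTiter-Glo luminescence were read from breast cancer cell lines incubated 72 h in 384-well plates. Cells were seeded as 20 µl suspension onto compound at 5 concentrations in 10-fold steps over a 10,000-fold range chosen per compound. Each plate was normalised to 0.1 % DMSO (100) and a positive kill control (0). Values are normalised signals, one per concentration.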

[8] = tested on: CAL-148; assay: as above
In short: as §2

[9] = tested on: CAL-51; assay: as above
In short: as §2

[10] = tested on: HCC1143; assay: as above
In short: as §2

[11] = tested on: HCC1599; assay: as above
In short: as §2

[12] = tested on: HCC1937; assay: as above
In short: as §2

[13] = tested on: MCF-10A; assay: as above
In short: as §2

[14] = tested on: MDA-MB-436; assay: as above
In short: as §2

[15] = tested on: SK-BR-3; assay: as above
In short: as §2

| SMILES | normalised viability [1] [%] | normalised viability [2] [%] | normalised viability [3] [%] | normalised viability [4] [%] | normalised viability [5] [%] | normalised viability [6] [%] | normalised response [7] [%] | normalised response [8] [%] | normalised response [9] [%] | normalised response [10] [%] | normalised response [11] [%] | normalised response [12] [%] | normalised response [13] [%] | normalised response [14] [%] | normalised response [15] [%] |
| --- | --- | --- | --- | --- | --- | --- | --- | --- | --- | --- | --- | --- | --- | --- | --- |
| CC(C)(C)c1cc(NC(=O)Nc2ccc(-c3cn4c(n3)sc3cc(OCCN5CCOCC5)ccc34)cc2)no1 [Quizartinib] (1000 nM) | 91.3 | 103 | 89.6 | 112 | 111 | 60.2 | 101 | 108 | 125 | 108 | 88.6 | 104 | 109 | 109 | 103 |
| CS(=O)(=O)CCNCc1ccc(-c2ccc3ncnc(Nc4ccc(OCc5cccc(F)c5)c(Cl)c4)c3c2)o1 [Lapatinib] (1000 nM) | – | – | – | – | – | – | 96.8 | 96.3 | 120 | 95.4 | 97.1 | 101 | 43.5 | 103 | 28.5 |
| COC1=CC(c2cc3ccccc3[nH]2)=N/C1=C\c1[nH]c(C)cc1C [Obatoclax] (10000 nM) | 10.8 | 6.23 | 22.1 | 30 | 35.5 | 18.6 | 70.5 | 76.5 | 7.62 | 92 | 88.2 | 67.7 | 95.8 | 81.6 | 64.3 |
| CCOc1cc2ncc(C#N)c(Nc3ccc(OCc4ccccn4)c(Cl)c3)c2cc1NC(=O)/C=C/CN(C)C [Neratinib] (1000 nM) | 79.5 | 92.5 | 101 | 105 | 116 | 75.8 | 79.1 | 68.8 | 45 | 72.7 | 95.5 | 66.1 | 25.4 | 56.3 | 16.2 |
| CC(=O)O[C@H]1C(=O)[C@@]2(C)[C@H]([C@H](OC(=O)c3ccccc3)[C@]3(O)C[C@H](OC(=O)[C@H](O)[C@@H](NC(=O)c4ccccc4)c4ccccc4)C(C)=C1C3(C)C)[C@]1(OC(C)=O)CO[C@@H]1C[C@@H]2O [Paclitaxel] (1000 nM) | 14.7 | 10.7 | 33.1 | 1.41 | 32.7 | 21 | 29.5 | 44.1 | 26.2 | 31.2 | 33.6 | 64.7 | 32.3 | 27 | 11.2 |
| CN1CCN(c2ccc3nc(-c4c(N)c5c(F)cccc5[nH]c4=O)[nH]c3c2)CC1 [Dovitinib] (10000 nM) | 88.5 | 108 | 87.1 | 96.7 | 96.4 | 79 | 91.5 | 88.1 | 127 | 90.1 | 102 | 88 | 100 | 87.6 | 91.5 |
| CC(C)C[C@H](NC(=O)[C@H](Cc1ccccc1)NC(=O)c1cnccn1)B(O)O [Bortezomib] (1000 nM) | 0.38 | 1.02 | 2.28 | 0.03 | -1.16 | 11.1 | 1.31 | 0.43 | 2.86 | 5.75 | 21.3 | 2.46 | 3.63 | 1.47 | 1.8 |
| C#Cc1cccc(Nc2ncnc3cc(OC)c(OCCCCCCC(=O)NO)cc23)c1 [CUDC-101] (10000 nM) | 0.77 | 18.1 | 1.33 | 1.42 | 19.3 | 0.71 | 8.24 | 0.32 | 12.8 | 15.1 | 7.05 | 21 | 8.27 | 33.5 | 0.76 |
| O=C(c1ccc(OCCN2CCCCC2)cc1)c1c(-c2ccc(O)cc2)sc2cc(O)ccc12 [Raloxifene] (10000 nM) | 125 | 105 | 98.6 | 113 | 105 | 45.7 | 62.3 | 99.4 | 104 | 101 | 49.1 | 79.1 | 107 | 71.8 | 82.7 |
| CCS(=O)(=O)c1cccc(-c2cc(C(=O)NC3CCN(C)CC3)c(C)c3[nH]c4ncc(C)cc4c23)c1 [TAK-901] (1000 nM) | 105 | 23.8 | 30.9 | 41.2 | 16.6 | 40.2 | 31.6 | 92.8 | 49.8 | 44.4 | 82.3 | 64.5 | 25.4 | 57 | 80.4 |
| O=c1[nH]cc(F)c(=O)[nH]1 [Fluorouracil] (10000 nM) | 55.4 | 47.9 | 58.3 | 75.2 | 74.4 | 72.9 | 92.7 | 88.6 | 85.3 | 76 | 93.8 | 72.8 | 88.4 | 75.8 | 74.8 |
